From patent US10028992B2, “Methods of treating muscular dystrophy” (BOARD OF REGENTS OF THE NEVADA SYSTEM OF HIGHER EDUCATION …, priority 2012, dated 2018)
“And” between values parts separate entries of the source, which are not always exact repeats. Equal entries are not always repeated.

System: α7 integrin promoter
Test: muscle cell-based assay: α7βgal+/− myoblasts/myotubes, LacZ reporter, β-galactosidase cleavage of FDG
Design: species or system mouse
Conditions: Myotubes; for Results in a α7+/− β-galactosidase assay, Myotubes, 0.5 uM: compound at 0.5 uM; for Results in a α7+/− β-galactosidase assay, Myotubes, 1 uM: compound at 1 uM; for Results in a α7+/− β-galactosidase assay, Myotubes, 5 uM: compound at 5 uM; for Results in a α7+/− β-galactosidase assay, Myotubes, 10 uM: compound at 10 uM; for Results in a α7+/− β-galactosidase assay, Myotubes, 20 uM: compound at 20 uM; for Results in a α7+/− β-galactosidase assay, Myotubes, 40 uM: compound at 40 uM
Method in brief: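 Fluorescein generated from FDG by β-galactosidase reports α7 integrin promoter activity in differentiated myoblasts from α7+/− LacZ knock-in pups. Screening hits then went to dose-response, western blotting and a myostatin counterscreen.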

Row | SMILES | Results in a α7+/− β-galactosidase assay, Myotubes, 0.5 uM | Results in a α7+/− β-galactosidase assay, Myotubes, 1 uM | Results in a α7+/− β-galactosidase assay, Myotubes, 5 uM | Results in a α7+/− β-galactosidase assay, Myotubes, 10 uM | Results in a α7+/− β-galactosidase assay, Myotubes, 20 uM | Results in a α7+/− β-galactosidase assay, Myotubes, 40 uM
1 | CCCN(C(=O)c1ccc(S(=O)(=O)N2CCCC2)cc1)C1CCS(=O)(=O)C1 (stereo not shown) [drawing 352] | −0.1044 | −0.1728 | −0.01555 | 0.1537 | −0.08104 | −0.06466
2 | C=CCOc1ccc(C(=O)/C=C2\C(=O)Nc3ccccc32)cc1 [drawing 353] | −0.02111 | −0.0826 | −0.09703 | 0.05145 | −0.2835 | −0.2827
3 | CCN(CC(=O)NCc1cccs1)C(=O)COc1ccc(C(N)=O)cc1 [drawing 354] | 0.06872 | −0.07237 | 0.09763 | 0.2952 | −0.2218 | −0.02391
4 | CC(C)Oc1cccc(C(=O)Nc2ccc(CN3CCOCC3)cc2)c1 [drawing 355] | −0.02164 | −0.1398 | 0.1741 | 0.1947 | −0.2357 | −0.1159
5 | Cc1ccc(/C=C2\C(=O)Nc3ccccc32)o1 [drawing 356] | 0.09656 | −0.02249 | −0.1043 | −0.06876 | −0.2369 | −0.336
6 | O=c1[nH]c(CN2CCCCC2)cc2c1C1(CCCCC1)Cc1ccccc1-2 [drawing 357] | 0.1087 | 0.1264 | −0.08739 | −0.0441 | −0.09507 | −0.1888
7 | COc1ccccc1NS(=O)(=O)c1cc(NC(=O)c2ccc(Cl)nc2)ccc1N1CCCC1 [drawing 358] | 0.1418 | 0.2243 | 0.0609 | 0.2352 | −0.07572 | −0.1492
8 | N#C/C(=C1/C(=O)Nc2ccc(Br)cc21)c1ccccn1 [drawing 359] | 0.2651 | 0.03214 | −0.1525 | −0.1528 | −0.2624 | −0.2931
9 | N#CC1=C2SCN(c3ccccc3)CN2C(=O)CC1c1cccs1 (stereo not shown) [drawing 360] | 0.09082 | 0.1158 | −0.0988 | −0.03259 | −0.2578 | −0.3783
10 | COc1ccc(C(=O)/C=C2\C(=O)Nc3ccccc32)cc1 [drawing 361] | 0.1208 | 0.06821 | −0.04505 | −0.256 | −0.3122 | −0.5124
11 | O=C(O)c1csc(-c2cccs2)n1 [drawing 362] | 0.2703 | 0.2837 | 0.2451 | −0.02819 | −0.1366 | −0.1007
12 | COc1cccc(C(=O)COc2ccc3ccc(=O)oc3c2)c1 [drawing 363] | 0.3069 | 0.2317 | 0.07669 | 0.03997 | −0.3325 | −0.3127
13 | CCCS(=O)(=O)c1nc(S(=O)(=O)c2ccc(C)cc2)c(N2CCCC2)s1 [drawing 364] | 0.01021 | 0.05992 | −0.01197 | −0.0108 | −0.2345 | −0.3321
14 | OC(c1nc2cc(F)ccc2[nH]1)C(O)c1nc2cc(F)ccc2[nH]1 (stereo not shown) [drawing 365] | 0.0667 | 0.1032 | 0.2081 | 0.01319 | −0.09026 | −0.08066
15 | COc1ccc(OC)c(NC(=O)CN2CCC(NC(=O)c3ccccc3C)CC2)c1 [drawing 366] | 0.003237 | 0.04584 | −0.09583 | −0.1153 | −0.1579 | −0.08927
16 | O=C(CCc1ccccc1)c1nnc(-c2ccccc2)o1 [drawing 367] | 0.117 | 0.1296 | −0.09921 | −0.1418 | −0.1125 | 0.05525
17 | COc1ccc(/N=N/c2ccc(N)nc2N)cc1 [drawing 368] | 0.1561 | 0.1699 | −0.00041 | −0.06379 | −0.1224 | −0.03271
18 | N=C(NOC(=O)c1cccc(C(F)(F)F)c1)c1cnccn1 [drawing 369] | 0.07542 | 0.07664 | −0.08801 | −0.1676 | −0.1858 | −0.1541
19 | CCOc1ccc2nc(Cl)sc2c1 [drawing 370] | −0.00103 | 0.001963 | −0.02718 | −0.04332 | −0.1345 | −0.219
20 | COc1ccc(CNC(=O)C2CCCN(S(=O)(=O)c3c(C)noc3/C=C/N(C)C)C2)cc1 (stereo not shown) [drawing 371] | 0.1862 | 0.2675 | −0.1068 | −0.1252 | −0.1996 | −0.2682
21 | CC(O)CNc1nc2c(c(=O)n(Cc3ccc(Br)cc3)c(=O)n2C)n1C (stereo not shown) [drawing 372] | 0.1594 | 0.164 | −0.05597 | −0.08357 | −0.2604 | −0.369
22 | COc1ccc(Cl)cc1NC(=O)c1cc(-c2cc(C)ccc2O)[nH]n1 [drawing 373] | 0.00543 | 0.04041 | −0.08884 | −0.1274 | −0.1168 | −0.2232
23 | CCC(C)C(CC)NC(=O)CSc1nnc(COc2ccc(Cl)cc2)o1 (stereo not shown) [drawing 374] | 0.09087 | 0.07758 | −0.09861 | −0.1776 | −0.01998 | −0.2485
24 | N#Cc1ccc(Sc2nc3ccccc3[nH]2)cc1C#N [drawing 376] | 0.09647 | 0.1219 | 0.01154 | −0.06084 | −0.00606 | −0.1145
25 | COc1cc(/C=C/CN2CCN(Cc3ccc(C)o3)C(CCO)C2)ccc1O (stereo not shown) [drawing 377] |  | 0.1027 and 0.08207 |  |  |  | 
